# Data from PMC5439695 (PLoS ONE, 2017).
# Like-named read-outs stand apart in the source and are kept apart here.
# Columns and labels:
# estrogen receptor (ER) = conditions: cited from earlier work; for AUC score in Judson 2015: ER antagonist, ToxCast chemicals only, ref Judson 2015; for ER antagonist AUC score: pathway-level model using all Tox21/ToxCast ER assays of 1812 ToxCast chemicals
# [1] = test system: HEK293 and HepG2 cell lines
# HEK293 cells [2] = assay: cells; conditions: Homo sapiens
# HepG2 cells [3] = conditions: HepG2 glo
# HEK293 cells [4] = assay: cells; conditions: Homo sapiens; remark: listed apart in the source
# HepG2 cells [5] = assay: CellTox Green Cytotoxicity Assay (flor) in HepG2, HepG2[flor]; type: cell-based, human; conditions: HepG2 flor; for EC50: Homo sapiens, given as negative log-scale values;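 on hepg2 flor emax 0: percent activity versus DMSO-only wells with baseline rescaled to 0%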;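 on hepg2 flor emax 40: percent activity versus DMSO-only wells with baseline rescaled to 0%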
# HepG2 cells [6] = assay: cells; conditions: Homo sapiens
# HEK293 cells [7] = conditions: HEK293 glo
# HEK293 cells [8] = conditions: HEK293 flor
# [9] = POD potency, max over real-time cytotoxicity assays
# [10] = POD potency, median over real-time cytotoxicity assays
compound,measurement,setting,value
CCCCNC(=O)OCC#CI [3-Iodo-2-propynyl-N-butylcarbamate],AUC score in Judson 2015,estrogen receptor (ER),0.0283
same,Cyto(realtime)_max,[1]; [9],5.74 log10(M)*-1
same,Cyto(realtime)_median,[1]; [10],4.62 log10(M)*-1
CC(C)c1cccc(C(C)C)c1N1C(=O)c2ccc(O)cc2C1=O [5HPP-33],AUC score in Judson 2015,estrogen receptor (ER),0
same,Cyto(realtime)_max,[1]; [9],4.71 log10(M)*-1
same,Cyto(realtime)_median,[1]; [10],4.30 log10(M)*-1
CC(C)=CCC/C(C)=C/CO [Geraniol],EC50,"HEK293 cells [2]; HEK293, read-out: hek293_flor_ec50_0",> 38.3 µM
same,EC50,"HEK293 cells [2]; HEK293, read-out: hek293_flor_ec50_8",> 38.3 µM
same,EC50,"HEK293 cells [2]; HEK293, read-out: hek293_flor_ec50_16",> 38.3 µM
same,EC50,"HEK293 cells [2]; HEK293, read-out: hek293_flor_ec50_24",> 38.3 µM
same,EC50,"HEK293 cells [2]; HEK293, read-out: hek293_flor_ec50_32",> 38.3 µM
same,EC50,"HEK293 cells [2]; HEK293, read-out: hek293_flor_ec50_40",> 38.3 µM
same,hepg2_glo_auc,HepG2 cells [3],0
same,hepg2_glo_time,HepG2 cells [3],48
same,hepg2_glo_bin,HepG2 cells [3]; kinetics bin,inactive
same,hepg2_glo_emax_0,HepG2 cells [3]; time point 0,0
same,hepg2_glo_pod_0,HepG2 cells [3]; time point 0,-4.417
same,hepg2_glo_wauc_0,HepG2 cells [3]; time point 0,0
same,hepg2_glo_emax_8,HepG2 cells [3]; time point 8,0
same,hepg2_glo_pod_8,HepG2 cells [3]; time point 8,-4.417
same,hepg2_glo_wauc_8,HepG2 cells [3]; time point 8,0
same,hepg2_glo_emax_16,HepG2 cells [3]; time point 16,0
same,hepg2_glo_pod_16,HepG2 cells [3]; time point 16,-4.417
same,hepg2_glo_wauc_16,HepG2 cells [3]; time point 16,0
same,hepg2_glo_emax_24,HepG2 cells [3]; time point 24,0
same,hepg2_glo_pod_24,HepG2 cells [3]; time point 24,-4.417
same,hepg2_glo_wauc_24,HepG2 cells [3]; time point 24,0
same,hepg2_glo_emax_32,HepG2 cells [3]; time point 32,0
same,hepg2_glo_pod_32,HepG2 cells [3]; time point 32,-4.417
same,hepg2_glo_wauc_32,HepG2 cells [3]; time point 32,0
same,hepg2_glo_emax_40,HepG2 cells [3]; time point 40,0
same,hepg2_glo_pod_40,HepG2 cells [3]; time point 40,-4.417
same,hepg2_glo_wauc_40,HepG2 cells [3]; time point 40,0
same,EC50,"HEK293 cells [4]; HEK293, read-out: hek293_glo_ec50_0",> 38.3 µM
same,EC50,"HEK293 cells [4]; HEK293, read-out: hek293_glo_ec50_8",> 38.3 µM
same,EC50,"HEK293 cells [4]; HEK293, read-out: hek293_glo_ec50_16",> 38.3 µM
same,EC50,"HEK293 cells [4]; HEK293, read-out: hek293_glo_ec50_24",> 38.3 µM
same,EC50,"HEK293 cells [4]; HEK293, read-out: hek293_glo_ec50_32",> 38.3 µM
same,EC50,"HEK293 cells [4]; HEK293, read-out: hek293_glo_ec50_40",> 38.3 µM
same,hepg2_flor_auc,HepG2 cells [5],0
same,hepg2_flor_time,HepG2 cells [5],48
same,hepg2_flor_bin,HepG2 cells [5]; kinetics bin,inactive
same,hepg2_flor_emax_0,HepG2 cells [5]; time point 0,0
same,hepg2_flor_pod_0,HepG2 cells [5]; time point 0,-4.417
same,hepg2_flor_wauc_0,HepG2 cells [5]; time point 0,0
same,hepg2_flor_emax_8,HepG2 cells [5]; time point 8,0
same,hepg2_flor_pod_8,HepG2 cells [5]; time point 8,-4.417
same,hepg2_flor_wauc_8,HepG2 cells [5]; time point 8,0
same,hepg2_flor_emax_16,HepG2 cells [5]; time point 16,0
same,hepg2_flor_pod_16,HepG2 cells [5]; time point 16,-4.417
same,hepg2_flor_wauc_16,HepG2 cells [5]; time point 16,0
same,hepg2_flor_emax_24,HepG2 cells [5]; time point 24,0
same,hepg2_flor_pod_24,HepG2 cells [5]; time point 24,-4.417
same,hepg2_flor_wauc_24,HepG2 cells [5]; time point 24,0
same,hepg2_flor_emax_32,HepG2 cells [5]; time point 32,0
same,hepg2_flor_pod_32,HepG2 cells [5]; time point 32,-4.417
same,hepg2_flor_wauc_32,HepG2 cells [5]; time point 32,0
same,hepg2_flor_emax_40,HepG2 cells [5]; time point 40,0
same,hepg2_flor_pod_40,HepG2 cells [5]; time point 40,-4.417
same,hepg2_flor_wauc_40,HepG2 cells [5]; time point 40,0
same,EC50,"HepG2 cells [5]; time point 0, read-out: hepg2_flor_ec50_0",> 38.3 µM
same,EC50,"HepG2 cells [5]; time point 8, read-out: hepg2_flor_ec50_8",> 38.3 µM
same,EC50,"HepG2 cells [5]; time point 16, read-out: hepg2_flor_ec50_16",> 38.3 µM
same,EC50,"HepG2 cells [5]; time point 24, read-out: hepg2_flor_ec50_24",> 38.3 µM
same,EC50,"HepG2 cells [5]; time point 32, read-out: hepg2_flor_ec50_32",> 38.3 µM
same,EC50,"HepG2 cells [5]; time point 40, read-out: hepg2_flor_ec50_40",> 38.3 µM
same,EC50,"HepG2 cells [6]; HepG2, read-out: hepg2_glo_ec50_0",> 38.3 µM
same,EC50,"HepG2 cells [6]; HepG2, read-out: hepg2_glo_ec50_8",> 38.3 µM
same,EC50,"HepG2 cells [6]; HepG2, read-out: hepg2_glo_ec50_16",> 38.3 µM
same,EC50,"HepG2 cells [6]; HepG2, read-out: hepg2_glo_ec50_24",> 38.3 µM
same,EC50,"HepG2 cells [6]; HepG2, read-out: hepg2_glo_ec50_32",> 38.3 µM
same,EC50,"HepG2 cells [6]; HepG2, read-out: hepg2_glo_ec50_40",> 38.3 µM
same,information,[1]; any activity in any time point/assay,0
same,hek293_glo_auc,HEK293 cells [7],0
same,hek293_glo_time,HEK293 cells [7],48
same,hek293_glo_bin,HEK293 cells [7]; kinetics bin,inactive
same,hek293_glo_emax_0,HEK293 cells [7]; time point 0,0
same,hek293_glo_pod_0,HEK293 cells [7]; time point 0,-4.417
same,hek293_glo_wauc_0,HEK293 cells [7]; time point 0,0
same,hek293_glo_emax_8,HEK293 cells [7]; time point 8,0
same,hek293_glo_pod_8,HEK293 cells [7]; time point 8,-4.417
same,hek293_glo_wauc_8,HEK293 cells [7]; time point 8,0
same,hek293_glo_emax_16,HEK293 cells [7]; time point 16,0
same,hek293_glo_pod_16,HEK293 cells [7]; time point 16,-4.417
same,hek293_glo_wauc_16,HEK293 cells [7]; time point 16,0
same,hek293_glo_emax_24,HEK293 cells [7]; time point 24,0
same,hek293_glo_pod_24,HEK293 cells [7]; time point 24,-4.417
same,hek293_glo_wauc_24,HEK293 cells [7]; time point 24,0
same,hek293_glo_emax_32,HEK293 cells [7]; time point 32,0
same,hek293_glo_pod_32,HEK293 cells [7]; time point 32,-4.417
same,hek293_glo_wauc_32,HEK293 cells [7]; time point 32,0
same,hek293_glo_emax_40,HEK293 cells [7]; time point 40,0
same,hek293_glo_pod_40,HEK293 cells [7]; time point 40,-4.417
same,hek293_glo_wauc_40,HEK293 cells [7]; time point 40,0
same,hek293_flor_auc,HEK293 cells [8],0
same,hek293_flor_time,HEK293 cells [8],48
same,hek293_flor_bin,HEK293 cells [8]; kinetics bin,inactive
same,hek293_flor_emax_0,HEK293 cells [8]; time point 0,0
same,hek293_flor_pod_0,HEK293 cells [8]; time point 0,-4.417
same,hek293_flor_wauc_0,HEK293 cells [8]; time point 0,0
same,hek293_flor_emax_8,HEK293 cells [8]; time point 8,0
same,hek293_flor_pod_8,HEK293 cells [8]; time point 8,-4.417
same,hek293_flor_wauc_8,HEK293 cells [8]; time point 8,0
same,hek293_flor_emax_16,HEK293 cells [8]; time point 16,0
same,hek293_flor_pod_16,HEK293 cells [8]; time point 16,-4.417
same,hek293_flor_wauc_16,HEK293 cells [8]; time point 16,0
same,hek293_flor_emax_24,HEK293 cells [8]; time point 24,0
same,hek293_flor_pod_24,HEK293 cells [8]; time point 24,-4.417
same,hek293_flor_wauc_24,HEK293 cells [8]; time point 24,0
same,hek293_flor_emax_32,HEK293 cells [8]; time point 32,0
same,hek293_flor_pod_32,HEK293 cells [8]; time point 32,-4.417
same,hek293_flor_wauc_32,HEK293 cells [8]; time point 32,0
same,hek293_flor_emax_40,HEK293 cells [8]; time point 40,0
same,hek293_flor_pod_40,HEK293 cells [8]; time point 40,-4.417
same,hek293_flor_wauc_40,HEK293 cells [8]; time point 40,0
CC/C(=C(\c1ccccc1)c1ccc(OCCN(C)C)cc1)c1ccccc1 [Tamoxifen],AUC score in Judson 2015,estrogen receptor (ER),0.447
same,Cyto(realtime)_median,[1]; [10],4.64 log10(M)*-1
CN[C@H]1CC[C@@H](c2ccc(Cl)c(Cl)c2)c2ccc(S(N)(=O)=O)cc21 [UK-373911],AUC score in Judson 2015,estrogen receptor (ER),6.68e-8
same,Cyto(realtime)_max,[1]; [9],5.12 log10(M)*-1
same,Cyto(realtime)_median,[1]; [10],4.70 log10(M)*-1
CC[C@H](c1ccc(O)cc1)[C@@H](CC)c1ccc(O)cc1 [meso-Hexestrol],AUC score in Judson 2015,estrogen receptor (ER),0
CCCCCCCCOC(=O)c1cc(O)c(O)c(O)c1 [octyl gallate],AUC score in Judson 2015,estrogen receptor (ER),0.0768
same,ER antagonist AUC score,estrogen receptor (ER),higher than 0.01
Dodecylphenol,AUC score in Judson 2015,estrogen receptor (ER),0
same,Cyto(realtime)_max,[1]; [9],5.05 log10(M)*-1
same,Cyto(realtime)_median,[1]; [10],4.56 log10(M)*-1
tetrabutyltin,AUC score in Judson 2015,estrogen receptor (ER),0.0101
same,ER antagonist AUC score,estrogen receptor (ER),higher than 0.01
same,Cyto(realtime)_max,[1],5.64 log10(M)*-1
same,Cyto(realtime)_median,[1],5.16 log10(M)*-1
